Measurements from patent EP0908457B1, “3-(1,2-benzisothiazol- and isoxazol-5-Y1)-2,4(1H,3H)-pyrimidinedione or thione and 3-(1,2-benzisothiazol- and isoxazol-5-y1)-4(3H)-pyrimidinone or thione herbicidal agents” (BASF AKTIENGESELLSCHAFT, priority 1997, dated 1999).

Columns and labels:
Sagittaria pygmaea, L. [1] = test: Preemergence weed control under flooded paddy conditions, SAGPY (Arrowhead (Pygmaea)); format: in vivo; details: preemergence, flooded paddy, rated three to four weeks after treatment; further: meaning of each grade not given here
Cyperus iria [2] = test: Preemergence weed control under flooded paddy conditions, CYPIR (Rice Flatsedge); format: in vivo; details: preemergence, flooded paddy, rated three to four weeks after treatment; further: meaning of each grade not given here
[3] = test system: Cyperus serotinus, Rottb.; test: Preemergence weed control under flooded paddy conditions, CYPSE (Flatsedge); format: in vivo; details: preemergence, rated three to four weeks after treatment; further: meaning of each grade not given here
Cyperus iria [4] = test: Postemergence weed control under flooded paddy conditions, CYPIR (Rice Flatsedge); format: in vivo; details: rated three to four weeks after treatment
[5] = test system: Monochoria vaginalis, Presl.; test: Postemergence weed control under flooded paddy conditions, MOOVA (Monochoria); format: in vivo; details: rated three to four weeks after treatment
[6] = test system: Echinochloa oryzoides (Ard.) Fritsch.; test: Preemergence weed control under flooded paddy conditions, ECHORC (Watergrass (Calif.)); format: in vivo; details: preemergence, flooded paddy, rated three to four weeks after treatment; further: meaning of each grade not given here
[7] = test system: Echinochloa oryzoides (Ard.) Fritsch.; test: Postemergence weed control under flooded paddy conditions, ECHORC (Watergrass (Calif.)); format: in vivo; details: rated three to four weeks after treatment
[8] = test system: Cyperus serotinus, Rottb.; test: Postemergence weed control under flooded paddy conditions, CYPSE (Flatsedge); format: in vivo; details: rated three to four weeks after treatment
[9] = test system: Monochoria vaginalis, Presl.; test: Preemergence weed control under flooded paddy conditions, MOOVA (Monochoria); format: in vivo; details: preemergence, flooded paddy, rated three to four weeks after treatment; further: meaning of each grade not given here
[10] = test system: Oryza sativa, (L.) Tebonnet; test: Rice tolerance to post-transplant applications under flooded paddy conditions (Example 188), ORYSAT (Rice, Tebonnet); details: rated three to four weeks after treatment
[11] = test system: Oryza sativa, (L.) Tebonnet; test: Rice tolerance to post-transplant applications under flooded paddy conditions (Example 187), ORYSAT (Rice, Tebonnet); details: rated three to four weeks after treatment; on herbicidal effect rating ORYSAT: meaning of each grade not given here
Sagittaria pygmaea, L. [12] = test: Postemergence weed control under flooded paddy conditions, SAGPY (Arrowhead (Pygmaea)); format: in vivo; details: rated three to four weeks after treatment

## CCc1ccc(-c2nsc3ccc(-n4c(=O)cc(C(F)(F)F)n(C)c4=O)cc23)cc1 [Example 5, 3-[3-(p-Ethylphenyl)-1,2-benzisothiazol-5-yl]-1-methyl-6-(trifluoromethyl)-2,4(1H,3H)-pyrimidinedione]
Sagittaria pygmaea, L. [1]; 0.0313 kg/ha
  herbicidal effect rating, SAGPY: 0.0
Sagittaria pygmaea, L. [1]; 0.0625 kg/ha
  herbicidal effect rating, SAGPY: 0.0
Sagittaria pygmaea, L. [1]; 0.1250 kg/ha
  herbicidal effect rating, SAGPY: 2.0
Sagittaria pygmaea, L. [1]; 0.2500 kg/ha
  herbicidal effect rating, SAGPY: 7.0
Sagittaria pygmaea, L. [1]; 0.5000 kg/ha
  herbicidal effect rating, SAGPY: 7.0
Cyperus iria [2]; 0.0313 kg/ha
  herbicidal effect rating, CYPIR: 9.0
Cyperus iria [2]; 0.0625 kg/ha
  herbicidal effect rating, CYPIR: 9.0
Cyperus iria [2]; 0.1250 kg/ha
  herbicidal effect rating, CYPIR: 9.0
Cyperus iria [2]; 0.2500 kg/ha
  herbicidal effect rating, CYPIR: 9.0
Cyperus iria [2]; 0.5000 kg/ha
  herbicidal effect rating, CYPIR: 9.0
[3]; 0.0313 kg/ha
  herbicidal effect rating, CYPSE: 0.0
[3]; 0.0625 kg/ha
  herbicidal effect rating, CYPSE: 2.0
[3]; 0.1250 kg/ha
  herbicidal effect rating, CYPSE: 6.0
[3]; 0.2500 kg/ha
  herbicidal effect rating, CYPSE: 8.0
[3]; 0.5000 kg/ha
  herbicidal effect rating, CYPSE: 7.0
Cyperus iria [4]; Rate 0.0313 kg/ha
  herbicidal effect rating, CYPIR: 9.0
Cyperus iria [4]; Rate 0.0625 kg/ha
  herbicidal effect rating, CYPIR: 9.0
Cyperus iria [4]; Rate 0.1250 kg/ha
  herbicidal effect rating, CYPIR: 9.0
Cyperus iria [4]; Rate 0.2500 kg/ha
  herbicidal effect rating, CYPIR: 9.0
Cyperus iria [4]; Rate 0.5000 kg/ha
  herbicidal effect rating, CYPIR: 9.0
[5]; Rate 0.0313 kg/ha
  herbicidal effect rating, MOOVA: 9.0
[5]; Rate 0.0625 kg/ha
  herbicidal effect rating, MOOVA: 9.0
[5]; Rate 0.1250 kg/ha
  herbicidal effect rating, MOOVA: 9.0
[5]; Rate 0.2500 kg/ha
  herbicidal effect rating, MOOVA: 9.0
[5]; Rate 0.5000 kg/ha
  herbicidal effect rating, MOOVA: 9.0
[6]; 0.0313 kg/ha
  herbicidal effect rating, ECHORC: 9.0
[6]; 0.0625 kg/ha
  herbicidal effect rating, ECHORC: 9.0
[6]; 0.1250 kg/ha
  herbicidal effect rating, ECHORC: 9.0
[6]; 0.2500 kg/ha
  herbicidal effect rating, ECHORC: 9.0
[6]; 0.5000 kg/ha
  herbicidal effect rating, ECHORC: 9.0
[7]; Rate 0.0313 kg/ha
  herbicidal effect rating, ECHORC: 2.0
[7]; Rate 0.0625 kg/ha
  herbicidal effect rating, ECHORC: 7.0
[7]; Rate 0.1250 kg/ha
  herbicidal effect rating, ECHORC: 6.0
[7]; Rate 0.2500 kg/ha
  herbicidal effect rating, ECHORC: 9.0
[7]; Rate 0.5000 kg/ha
  herbicidal effect rating, ECHORC: 9.0
[8]; Rate 0.0313 kg/ha
  herbicidal effect rating, CYPSE: 0.0
[8]; Rate 0.0625 kg/ha
  herbicidal effect rating, CYPSE: 0.0
[8]; Rate 0.1250 kg/ha
  herbicidal effect rating, CYPSE: 0.0
[8]; Rate 0.2500 kg/ha
  herbicidal effect rating, CYPSE: 0.0
[8]; Rate 0.5000 kg/ha
  herbicidal effect rating, CYPSE: 0.0
[9]; 0.0313 kg/ha
  herbicidal effect rating, MOOVA: 9.0
[9]; 0.0625 kg/ha
  herbicidal effect rating, MOOVA: 9.0
[9]; 0.1250 kg/ha
  herbicidal effect rating, MOOVA: 9.0
[9]; 0.2500 kg/ha
  herbicidal effect rating, MOOVA: 9.0
[9]; 0.5000 kg/ha
  herbicidal effect rating, MOOVA: 9.0
[10]; Rate 0.0313 kg/ha
  herbicidal effect rating, ORYSAT (rice tolerance): 2.0
[10]; Rate 0.0625 kg/ha
  herbicidal effect rating, ORYSAT (rice tolerance): 2.0
[10]; Rate 0.1250 kg/ha
  herbicidal effect rating, ORYSAT (rice tolerance): 4.0
[10]; Rate 0.2500 kg/ha
  herbicidal effect rating, ORYSAT (rice tolerance): 6.0
[10]; Rate 0.5000 kg/ha
  herbicidal effect rating, ORYSAT (rice tolerance): 8.0
[11]; 0.0313 kg/ha
  herbicidal effect rating, ORYSAT (rice tolerance): 2.0
[11]; 0.0625 kg/ha
  herbicidal effect rating, ORYSAT (rice tolerance): 3.0
[11]; 0.1250 kg/ha
  herbicidal effect rating, ORYSAT (rice tolerance): 4.0
[11]; 0.2500 kg/ha
  herbicidal effect rating, ORYSAT (rice tolerance): 5.0
[11]; 0.5000 kg/ha
  herbicidal effect rating, ORYSAT (rice tolerance): 7.0
Sagittaria pygmaea, L. [12]; Rate 0.0313 kg/ha
  herbicidal effect rating, SAGPY: 2.0
Sagittaria pygmaea, L. [12]; Rate 0.0625 kg/ha
  herbicidal effect rating, SAGPY: 2.0
Sagittaria pygmaea, L. [12]; Rate 0.1250 kg/ha
  herbicidal effect rating, SAGPY: 4.0
Sagittaria pygmaea, L. [12]; Rate 0.2500 kg/ha
  herbicidal effect rating, SAGPY: 6.0
Sagittaria pygmaea, L. [12]; Rate 0.5000 kg/ha
  herbicidal effect rating, SAGPY: 8.0

## COC(=O)COc1ccc(C)cc1-c1noc2cc(F)c(-n3c(=O)cc(C(F)(F)F)n(C)c3=O)cc12 [Example 359, Acetic acid, {{2-{5-[3,6-dihydro-3-methyl-2,6-dioxo-4-(trifluoromethyl)-1(2H)-pyrimidinyl]-6-fluoro-1,2-benzisoxazol-3-yl}-p-tolyl}oxy}-, methyl ester]
Sagittaria pygmaea, L. [1]; Rate 0.0320 kg/ha
  herbicidal effect rating, SAGPY: 0.0
Sagittaria pygmaea, L. [1]; Rate 0.0620 kg/ha
  herbicidal effect rating, SAGPY: 0.5
Sagittaria pygmaea, L. [1]; Rate 0.1250 kg/ha
  herbicidal effect rating, SAGPY: 1.8
Sagittaria pygmaea, L. [1]; Rate 0.2500 kg/ha
  herbicidal effect rating, SAGPY: 4.5
Sagittaria pygmaea, L. [1]; Rate 0.5000 kg/ha
  herbicidal effect rating, SAGPY: 5.0
Cyperus iria [2]; Rate 0.0320 kg/ha
  herbicidal effect rating, CYPIR: 6.3
Cyperus iria [2]; Rate 0.0620 kg/ha
  herbicidal effect rating, CYPIR: 7.5
Cyperus iria [2]; Rate 0.1250 kg/ha
  herbicidal effect rating, CYPIR: 8.5
Cyperus iria [2]; Rate 0.2500 kg/ha
  herbicidal effect rating, CYPIR: 9.0
Cyperus iria [2]; Rate 0.5000 kg/ha
  herbicidal effect rating, CYPIR: 9.0
[3]; Rate 0.0320 kg/ha
  herbicidal effect rating, CYPSE: 9.0
[3]; Rate 0.0620 kg/ha
  herbicidal effect rating, CYPSE: 6.0
[3]; Rate 0.1250 kg/ha
  herbicidal effect rating, CYPSE: 9.0
[3]; Rate 0.2500 kg/ha
  herbicidal effect rating, CYPSE: 9.0
Cyperus iria [4]; Rate 0.0320 kg/ha
  herbicidal effect rating, CYPIR: 4.0
Cyperus iria [4]; Rate 0.0620 kg/ha
  herbicidal effect rating, CYPIR: 7.0
Cyperus iria [4]; Rate 0.1250 kg/ha
  herbicidal effect rating, CYPIR: 9.0
[5]; Rate 0.0320 kg/ha
  herbicidal effect rating, MOOVA: 7.0
[5]; Rate 0.0620 kg/ha
  herbicidal effect rating, MOOVA: 7.0
[5]; Rate 0.1250 kg/ha
  herbicidal effect rating, MOOVA: 9.0
[6]; Rate 0.0320 kg/ha
  herbicidal effect rating, ECHORC: 8.5
[6]; Rate 0.0620 kg/ha
  herbicidal effect rating, ECHORC: 9.0
[6]; Rate 0.1250 kg/ha
  herbicidal effect rating, ECHORC: 9.0
[6]; Rate 0.2500 kg/ha
  herbicidal effect rating, ECHORC: 9.0
[6]; Rate 0.5000 kg/ha
  herbicidal effect rating, ECHORC: 9.0
[7]; Rate 0.0320 kg/ha
  herbicidal effect rating, ECHORC: 2.0
[7]; Rate 0.0620 kg/ha
  herbicidal effect rating, ECHORC: 6.0
[7]; Rate 0.1250 kg/ha
  herbicidal effect rating, ECHORC: 6.0
[8]; Rate 0.0320 kg/ha
  herbicidal effect rating, CYPSE: 0.0
[8]; Rate 0.0620 kg/ha
  herbicidal effect rating, CYPSE: 0.0
[8]; Rate 0.1250 kg/ha
  herbicidal effect rating, CYPSE: 0.0
[9]; Rate 0.0320 kg/ha
  herbicidal effect rating, MOOVA: 8.8
[9]; Rate 0.0620 kg/ha
  herbicidal effect rating, MOOVA: 9.0
[9]; Rate 0.1250 kg/ha
  herbicidal effect rating, MOOVA: 9.0
[9]; Rate 0.2500 kg/ha
  herbicidal effect rating, MOOVA: 9.0
[9]; Rate 0.5000 kg/ha
  herbicidal effect rating, MOOVA: 9.0
[10]; Rate 0.0320 kg/ha
  herbicidal effect rating, ORYSAT (rice tolerance): 2.0
[10]; Rate 0.0620 kg/ha
  herbicidal effect rating, ORYSAT (rice tolerance): 3.0
[10]; Rate 0.1250 kg/ha
  herbicidal effect rating, ORYSAT (rice tolerance): 4.0
[11]; Rate 0.0320 kg/ha
  herbicidal effect rating ORYSAT: 6.5
[11]; Rate 0.0620 kg/ha
  herbicidal effect rating ORYSAT: 7.3
[11]; Rate 0.1250 kg/ha
  herbicidal effect rating ORYSAT: 8.8
[11]; Rate 0.2500 kg/ha
  herbicidal effect rating ORYSAT: 9.0
[11]; Rate 0.5000 kg/ha
  herbicidal effect rating ORYSAT: 9.0
Sagittaria pygmaea, L. [12]; Rate 0.0320 kg/ha
  herbicidal effect rating, SAGPY: 0.0
Sagittaria pygmaea, L. [12]; Rate 0.0620 kg/ha
  herbicidal effect rating, SAGPY: 0.0
Sagittaria pygmaea, L. [12]; Rate 0.1250 kg/ha
  herbicidal effect rating, SAGPY: 0.0
